We go through six molecules from patent US20260345459A1, “SUBMICRON PARTICLE COMPRISING A PEPTIDE ACTIVE, PREPARATION METHOD AND USES THEREOF, IN PARTICULAR COSMETIC USES” (Sederma, priority 2023, published 2026).

Residues, ends and D or L forms follow the SMILES beside them. No end group written: not given here. *: point of attachment. Palmitoyl = CCCCCCCCCCCCCCCC(=O)*; Lauroyl = CCCCCCCCCCCC(=O)*

The nature of series [1]: Accelerated stability at 40 °C. The format is physicochemical. Here is the method:
(§1) For these studies, encapsulated peptide formulations were stored in HDPE polyethylene bottles at the study temperature (room temperature and 40 °C). At each analysis time, a new 30 g bottle is opened for the first time. All the samples are handled under regular laboratory lighting and normal air conditions. No inert gas is used to fill the bottles or to handle the samples.
The study was performed at 40 °C. At this temperature, degradation is accelerated. There is a correlation with degradation at room temperature, 90 days at 40 °C being equivalent to 1 year at room temperature. This study thus constitutes a good indicator of the stability of the encapsulated peptide suspensions according to the invention.

Series [2] in a line: Characterization of the obtained suspensions at T0 (macroscopic, pH, laser diffraction particle size, polydispersity, HPLC peptide content). The format is physicochemical. The conditions noted are these: different derivatization, peptide 100 ppm. How it is done: For each suspension, the presence or absence of heterogeneous aspects, phase separation or precipitation, and colour are visually assessed through a colourless transparent bottle without the use of any instruments. The viscosity is also estimated visually in comparison with water.
The pH was measured directly in the formulation (without dilution) using a calibrated potentiometer (pH 4.0 and 7.0).
Laser diffraction technique (Mastersizer 3000™, Malvern). The suspension is added directly to the water-containing wet dispersion unit until darkening in the 2-8% range. The refractive index used is 1.456, corresponding to the index of wax, i.e. cetyl palmitate. The results are expressed in D50 corresponding to particle diameters at the 50th percentile of the particle size distribution curve, representing the mean particle size.
A range of less than 2 is considered as a narrow distribution, describing particle size homogeneity.
This is quantified using an HPLC chromatography method, with a column, mobile phase and detection appropriate to each peptide active agent. An external calibration curve is produced.
Each suspension is treated by liquid/liquid extraction of a mixture composed of isopropanol, a pH 2-2.5 buffer and an organic solvent (acetonitrile or methanol) depending on the peptide to be dosed.
For Pal-KTTKS, Pal-GHK, Pal-GQPR and Pal-VGVAPG peptides, quantification is performed, for example, by HPLC at 35 °C using a Waters Symmetry™ C18 5 μm 4.6×150 mm HPLC column, a mobile phase consisting of an eluent of 99.8/0.1/0.1 v/v/v water/orthosphoric acid/triethylamine and acetonitrile. Detection is performed at 210 nm.
For the Pal-PP peptide, for example, analysis is performed at 40 °C using a Macherey Nagel™ EC 125/4 Nucleodur 100-5 C8 ec column, a mobile phase consisting of a 99.8/0.1/0.1 v/v/v water/orthosphoric acid/triethylamine and acetonitrile eluent. Detection is performed at 210 nm. […]

Series [3] in a line: Stability at room temperature. The format is physicochemical. Here is the method: as §1
The following encapsulated peptides were monitored: Pal-KTTKS, Pal-GHK, Pal-GQPR, Pal-KTFK, Pal-KMO2K, Pal-VGVAPG and Pal-PP.

Series [4] can be described thus: Trypsin digestion: proof of encapsulation and half-life. The format is in vitro ADME. The conditions noted are these: role: substrate; 0.003% trypsin, acetate buffer pH=5, 25 °C, peptide 100 ppm; read-out: T1/2 (loss of 50% of the initial content). Here is the method: The study was performed on a suspension of Pal-KTTKS encapsulated according to the invention, using trypsin, an enzyme that hydrolyses a peptide whose sequence contains the amino acid lysine. The peptide is placed in the presence of trypsin and the amount of peptide remaining, i.e. not hydrolysed by trypsin, is measured as a function of time. Only the peptide released from the capsule over time is susceptible to hydrolysis.
At T0, measurements make it possible to confirm that the peptide is encapsulated.
The kinetics will then make it possible to determine the half-life, which constitutes an indicator of the peptide's accessibility to the enzyme, and therefore an indicator of the peptide's protection by the capsule.
Two solutions are compared: one containing the encapsulated peptide (100 ppm) and the other the free (i.e. non-encapsulated) peptide, also at 100 ppm. Acetate buffer solution at pH=5 containing 0.003% trypsin is added. The samples are heated to 25 °C. The enzymatic reaction is stopped to perform the measurements by adding isopropyl alcohol. Peptide quantification is performed by HPLC using the method described in paragraph B 1-4 above.
Hydrolysis monitoring is performed under the chromatographic analysis conditions described in paragraph B 1-4 above.

Where [5] appears, read: different derivatization, peptide 100 ppm, 1 month at 40 °C.
Where [6] appears, read: TA1 decyl glucoside, RT, 3 months.

With `CCCCCCCCCCCCCCCCOC(=O)[C@H](CCCNC(=N)N)NC(=O)[C@H](Cc1ccc(O)cc1)NC(C)=O` [N-Acetyl-YR-O-hexadecyl ester, Acetyl-Tyr-Arg-hexadecyl ester], in series [1] (setting [5]), the D50 result was “D50 (μm) = 0.237”, the Stability over time entry was “Yes” and the pH result is reported as “pH 8.70”. In series [2], the D50 result was “D50 (μm) = 0.234”, the “Formation of a suspension of submicron particles” value is “Yes” and the pH entry is “pH 8.70”.

On to `CCCCCCCCCCCCCCCC(=O)NCC(=O)N[C@@H](Cc1c[nH]cn1)C(=O)N[C@@H](CCCCN)C(=O)O` [Pal-GHK] (Palmitoyl-Gly-His-Lys-OH), for which the Stability over time result in series [3] (10% glycerol, 1 month) was “Yes”; in series [3] (TA1 + TA2 (Lipoid P75-3), 3 months at RT) it was “Yes”; in series [3] (setting [6]) it was “Yes (3 months)”; in series [3] (TA1 lauryl glucoside, RT, 3 months) it was “Yes (3 months)”; in series [3] (TA1 only, without TA2, 3 months at RT) it was “Yes”; in series [3] (peptide content 100 ppm, RT, 1 month), “Yes”. Further, the Stability over time result is listed as “Yes” in series [3] (peptide content 500 ppm, RT, 1 month); “Yes” in series [3] (peptide content 1000 ppm, RT, 1 month); “Yes” in series [3] (without glycerol, 1 month); “Yes” in series [1] (TA1 + TA2 (Lipoid P75-3), 3 months at 40 °C); “No: Phase” in series [1] (TA1 only, without TA2, 3 months at 40 °C).

Consider `CCCCCCCC(=O)N[C@H](C(=O)N[C@@H](Cc1c[nH]c2ccccc12)C(=O)O)[C@@H](C)CC` [Octanoyl-IW], for which the Stability over time entry in series [1] (setting [5]) is recorded as “Yes”.

Turning to `CCCCCCCCCCCC(=O)N[C@@H](CCCCN)C(=O)N[C@H](C(=O)N[C@@H](CO)C(=O)N[C@@H](CCCCN)C(=O)N[C@@H](CO)C(=O)O)[C@@H](C)O` [Lauroyl-KTSKS] (Lauroyl-KTSKS-OH), in series [1] (setting [5]), the Stability over time entry was “Yes”.

On to `CCCCCCCCCCCCCCCC(=O)N[C@@H](CCCCN)C(=O)N[C@H](C(=O)N[C@H](C(=O)N[C@@H](CCCCN)C(=O)N[C@@H](CO)C(=O)O)[C@@H](C)O)[C@@H](C)O` [Pal-KTTKS] (Palmitoyl-KTTKS-OH), for which the Stability over time entry in series [3] (2.5% wax, RT, 6 months) is “Yes”; in series [3] (5% wax, RT, 6 months) it was “Yes”; in series [3] (setting [6]), “Yes (3 months)”; in series [3] (TA1 lauryl glucoside, RT, 12 months), “Yes (12 months)”; in series [1] (setting [5]), “Yes”. Moreover, in series [3] (room temperature, encapsulated), the stability duration result was “up to 1 year”. Moreover, the half-life in series [4] was 1 h.

For KTTKS [H-KTTKS], the Stability over time result in series [1] (setting [5]) was “Yes”.
